Source: ChEMBL document CHEMBL1139137, “Modifications of the GSK3beta substrate sequence to produce substrate-mimetic inhibitors of Akt as potential anti-cancer therapeutics” (Bioorg Med Chem Lett, 2007)
Starred links: 1 amine or outer side, 2 acyl side, 3 side chain; linkers in the order of their positions; H or OH if unused. Non-standard residues stand in square brackets, D forms with d. Residues, ends and D or L forms follow the SMILES beside them. *: point of attachment. NH(2-(1-naphthyl)ethyl) = c1ccc2c(CCN*)cccc2c1; NHCH2CH2(piperidin-1-yl) = C1CCN(CCN*)CC1; X4 = c1ccc(CC2CCN(CCN*)CC2)cc1; X1 = CC(=O)Nc1cccc(OCCCN*)c1; X2 = c1ccc2cc(CCN*)ccc2c1; 4Abz = Nc1ccc(C(=O)O)cc1; X3 = CCCCCc1ccc(CN*)cc1; CO = O=C([*:1])[*:2]; NHBn = c1ccc(CN*)cc1; NHHex = CCCCCCN*

Target: RAC-alpha serine/threonine-protein kinase (Homo sapiens, UniProt P31749)
Sequence (P31749 whole entry): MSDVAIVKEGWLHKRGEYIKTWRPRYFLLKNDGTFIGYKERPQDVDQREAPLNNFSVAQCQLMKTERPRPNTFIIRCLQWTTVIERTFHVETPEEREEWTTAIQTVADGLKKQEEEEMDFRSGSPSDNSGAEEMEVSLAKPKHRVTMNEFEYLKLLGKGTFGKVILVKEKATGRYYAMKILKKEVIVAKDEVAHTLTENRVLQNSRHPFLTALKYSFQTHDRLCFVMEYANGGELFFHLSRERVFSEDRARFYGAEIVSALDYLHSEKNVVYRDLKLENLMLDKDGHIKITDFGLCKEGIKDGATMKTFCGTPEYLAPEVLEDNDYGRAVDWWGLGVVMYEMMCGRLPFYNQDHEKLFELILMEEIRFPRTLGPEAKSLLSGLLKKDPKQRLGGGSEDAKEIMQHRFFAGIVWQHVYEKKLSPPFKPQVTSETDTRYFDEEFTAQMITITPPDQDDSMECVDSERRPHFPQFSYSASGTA
Test: Inhibition of Akt after 1 hr by fluorescence polarization assay

Row | Molecule | IC50 [µM]
1 | CC(C)[C@H](NC(=O)c1ccc(NCCNC(=N)N)cc1)C(=O)N[C@@H](Cc1ccccc1)C(=O)NCc1ccccc1 | 390
2 | CC(C)[C@H](NC(=O)c1ccc(CNC(=N)N)cc1)C(=O)N[C@@H](Cc1ccccc1)C(=O)NCc1ccccc1 | > 500
3 | CC(=O)N[C@@H](CCCN=C(N)N)C(=O)Nc1ccc(C(=O)N[C@H](C(=O)N[C@@H](Cc2ccccc2)C(=O)NCCc2ccc3ccccc3c2)C(C)C)cc1 | 51
4 | CC(=O)N[C@@H](CCCNC(=N)N)C(=O)Nc1ccc(C(=O)N[C@H](C(=O)N[C@@H](Cc2ccccc2)C(=O)NCCc2cccc3ccccc23)C(C)C)cc1 | 89
5 | CC(C)[C@H](NC(=O)c1ccc(CCN=C(N)N)cc1)C(=O)N[C@@H](Cc1ccccc1)C(=O)NCc1ccccc1 | 120
6 | CC(C)[C@H](NC(=O)c1ccc(N(CC(=O)NC(C)(C)C)C(=O)CCCCNC(=N)N)cc1)C(=O)N[C@@H](Cc1ccccc1)C(=O)NCc1ccccc1 | 58
7 | CCCCCCNC(=O)[C@H](Cc1ccccc1)NC(=O)[C@@H](NC(=O)c1ccc(NC(=O)[C@H](CCCNC(=N)N)NC(C)=O)cc1)C(C)C | 163
8 | CC(C)[C@H](NC(=O)c1ccc(NC(=N)N)cc1)C(=O)N[C@@H](Cc1ccccc1)C(=O)NCc1ccccc1 | 77
9 | CCCCCc1ccc(CNC(=O)[C@H](Cc2ccccc2)NC(=O)[C@@H](NC(=O)c2ccc(NC(=O)[C@H](CCCN=C(N)N)NC(C)=O)cc2)C(C)C)cc1 | 104
10 | CC(C)[C@H](NC(=O)c1ccc(N(CC(=O)NCc2ccccc2)C(=O)CCCCNC(=N)N)cc1)C(=O)N[C@@H](Cc1ccccc1)C(=O)NCc1ccccc1 | 14
11 | CC(C)[C@H](NC(=O)c1ccc(NC(=O)CCCCNC(=N)N)cc1)C(=O)N[C@@H](Cc1ccccc1)C(=O)NCc1ccccc1 | 193
12 | CC(=O)NCC(=O)N[C@@H](C)C(=O)N1CCC[C@H]1C(=O)N[C@@H](C)C(=O)Nc1ccc(C(=O)N[C@H](C(=O)N[C@@H](Cc2ccccc2)C(=O)NCc2ccccc2)C(C)C)cc1 (Ac-GAPA[4Abz]VF-NHBn) | > 500
13 | CC(=O)NCC(=O)N[C@@H](C)C(=O)N1CCC[C@H]1C(=O)N[C@@H](CCCNC(=N)N)C(=O)Nc1ccc(C(=O)N[C@H](C(=O)N[C@@H](Cc2ccccc2)C(=O)NCc2ccccc2)C(C)C)cc1 (Ac-GAPR[4Abz]VF-NHBn) | 41
14 | CC(=O)NCC(=O)N[C@@H](CCCN=C(N)N)C(=O)N1CCC[C@H]1C(=O)N[C@@H](C)C(=O)Nc1ccc(C(=O)N[C@H](C(=O)N[C@@H](Cc2ccccc2)C(=O)NCc2ccccc2)C(C)C)cc1 (Ac-GRPA[4Abz]VF-NHBn) | 79
15 | CC(=O)NCC(=O)N[C@@H](CCCNC(=N)N)C(=O)N1CCC[C@H]1C(=O)N[C@@H](CCCNC(=N)N)C(=O)N[C@@H](C)C(=O)N[C@@H](C)C(=O)N[C@H](C(=O)N[C@@H](Cc1ccccc1)C(=O)NCc1ccccc1)C(C)C (Ac-GRPRAAVF-NHBn) | 438
16 | CC(=O)NCC(=O)N[C@@H](CCCNC(=N)N)C(=O)N1CCC[C@H]1C(=O)N[C@@H](CCCNC(=N)N)C(=O)N[C@H](C(=O)N[C@H](C(=O)N[C@H](C(=O)N[C@@H](Cc1ccccc1)C(=O)NCc1ccccc1)C(C)C)[C@@H](C)O)[C@@H](C)O (Ac-GRPRTTVF-NHBn) | 239

Row | Molecule | IC50 [µM]
17 | CCCCCCNC(=O)[C@H](Cc1ccccc1)NC(=O)[C@@H](NC(=O)c1ccc(NC(=O)[C@H](CCCN=C(N)N)NC(=O)[C@@H]2CCCN2C(=O)[C@H](CCCN=C(N)N)NC(=O)CNC(C)=O)cc1)C(C)C (Ac-GRPR[4Abz]VF-NHHex) | 52
18 | CC(=O)NCC(=O)N[C@@H](CCCNC(=N)N)C(=O)N1CCC[C@H]1C(=O)N[C@@H](CCCNC(=N)N)C(=O)Nc1ccc(C(=O)N[C@H](C(=O)N[C@@H](Cc2ccccc2)C(=O)NCCCOc2cccc(NC(C)=O)c2)C(C)C)cc1 (Ac-GRPR[4Abz]VF-X1) | 322
19 | CC(=O)NCC(=O)N[C@@H](CCCN=C(N)N)C(=O)N1CCC[C@H]1C(=O)N[C@@H](CCCN=C(N)N)C(=O)Nc1ccc(C(=O)N[C@H](C(=O)N[C@@H](Cc2ccccc2)C(=O)NCCc2ccc3ccccc3c2)C(C)C)cc1 (Ac-GRPR[4Abz]VF-X2) | 36
20 | CCCCCc1ccc(CNC(=O)[C@H](Cc2ccccc2)NC(=O)[C@@H](NC(=O)c2ccc(NC(=O)[C@H](CCCN=C(N)N)NC(=O)[C@@H]3CCCN3C(=O)[C@H](CCCN=C(N)N)NC(=O)CNC(C)=O)cc2)C(C)C)cc1 (Ac-GRPR[4Abz]VF-X3) | 96
21 | CC(=O)NCC(=O)N[C@@H](CCCNC(=N)N)C(=O)N1CCC[C@H]1C(=O)N[C@@H](CCCNC(=N)N)C(=O)Nc1ccc(C(=O)N[C@H](C(=O)N[C@@H](Cc2ccccc2)C(=O)NCCN2CCC(Cc3ccccc3)CC2)C(C)C)cc1 (Ac-GRPR[4Abz]VF-X4) | 94
22 | CC(=O)NCC(=O)N[C@@H](CCCNC(=N)N)C(=O)N1CCC[C@H]1C(=O)N[C@@H](CCCNC(=N)N)C(=O)Nc1ccc(C(=O)N[C@H](C(=O)N[C@@H](Cc2ccccc2)C(=O)NCCc2cccc3ccccc23)C(C)C)cc1 (Ac-GRPR[4Abz]VF-{NH(2-(1-naphthyl)ethyl)}) | 62
23 | CC(=O)NCC(=O)N[C@@H](CCCNC(=N)N)C(=O)N1CCC[C@H]1C(=O)N[C@@H](CCCNC(=N)N)C(=O)Nc1ccc(C(=O)N[C@H](C(=O)N[C@@H](Cc2ccccc2)C(=O)NCCN2CCCCC2)C(C)C)cc1 (Ac-GRPR[4Abz]VF-{NHCH2CH2(piperidin-1-yl)}) | > 500
24 | CC(=O)N[C@@H](CCCN=C(N)N)C(=O)Nc1ccc(C(=O)N[C@H](C(=O)N[C@@H](Cc2ccccc2)C(=O)NCc2ccccc2)C(C)C)cc1 (Ac-R[4Abz]VF-NHBn) | 119
25 | C[C@@H](O)[C@H](NC(=O)[C@H](CCCNC(=N)N)NC(=O)[C@@H]1CCCN1C(=O)[C@H](CCCNC(=N)N)NC(=O)CNC(=O)O)C(=O)N[C@H](C(=O)N[C@@H](CC(N)=O)C(=O)N[C@@H](Cc1ccccc1)C(=O)O)[C@@H](C)O ({CO}-GRPRTTNF-OH) | 229
26 | Ac-GRPRTTAF-OH | 409
27 | Ac-GRPRTTCF-OH | 241
28 | Ac-GRPRTTFF-OH | > 500
29 | Ac-GRPRTTHF-OH | > 500
30 | Ac-GRPRTTVF-OH | 445
31 | Ac-GRPRTTWF-OH | > 500
